Columns and labels:
Androgen receptor [1] = biological target: T1, Androgen receptor (Homo sapiens, UniProt P10275); format: cell-based, HEK293
T1 sequence (P10275 whole entry): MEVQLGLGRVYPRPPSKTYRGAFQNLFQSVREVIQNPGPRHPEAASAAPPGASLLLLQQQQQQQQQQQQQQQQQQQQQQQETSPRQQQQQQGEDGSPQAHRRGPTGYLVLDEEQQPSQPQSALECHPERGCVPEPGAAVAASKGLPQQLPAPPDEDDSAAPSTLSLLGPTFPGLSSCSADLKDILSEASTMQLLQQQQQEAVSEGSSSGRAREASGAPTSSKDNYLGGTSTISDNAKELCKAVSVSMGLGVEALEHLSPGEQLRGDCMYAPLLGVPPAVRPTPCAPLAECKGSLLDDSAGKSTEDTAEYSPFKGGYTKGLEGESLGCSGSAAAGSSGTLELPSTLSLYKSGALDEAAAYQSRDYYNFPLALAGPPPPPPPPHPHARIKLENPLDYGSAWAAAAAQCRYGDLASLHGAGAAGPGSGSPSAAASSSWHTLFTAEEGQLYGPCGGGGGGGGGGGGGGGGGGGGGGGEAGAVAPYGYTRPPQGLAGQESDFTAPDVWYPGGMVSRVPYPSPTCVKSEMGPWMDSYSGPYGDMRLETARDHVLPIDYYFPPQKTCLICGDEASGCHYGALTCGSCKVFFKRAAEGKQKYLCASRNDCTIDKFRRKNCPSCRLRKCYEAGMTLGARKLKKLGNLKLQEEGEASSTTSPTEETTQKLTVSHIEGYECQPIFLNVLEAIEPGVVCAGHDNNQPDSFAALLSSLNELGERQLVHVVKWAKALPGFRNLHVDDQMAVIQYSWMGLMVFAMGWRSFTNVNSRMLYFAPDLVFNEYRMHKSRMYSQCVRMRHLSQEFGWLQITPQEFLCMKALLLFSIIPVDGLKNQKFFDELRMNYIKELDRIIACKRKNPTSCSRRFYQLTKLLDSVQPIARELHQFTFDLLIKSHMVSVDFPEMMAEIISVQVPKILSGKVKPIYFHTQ

LNCaP = assay: cells; format: functional, cell-based; details: Homo sapiens, 168 h
Description: Antiproliferative activity against human LNCaP cells incubated for 7 days in presence of R1881 by Celltiter-Glo assay

[2] = mouse, microsomes, 1 h, 1 µM
in vitro [3] = details: mouse, microsomes
Description: Metabolic stability in mouse liver microsomes assessed as parent compound remaining at 1 uM measured after 60 mins in presence of NADPH by LC-MS/MS analysis

in vitro [4] = details: human, microsomes
Description: Metabolic stability in human liver microsomes assessed as parent compound remaining at 1 uM measured after 60 mins in presence of NADPH by LC-MS/MS analysis

cells = format: functional, cell-based; details: Homo sapiens, LNCaP-EnzR, 168 h
Description: Antiproliferative activity against human LNCaP-EnzR cells assessed as inhibition of cell viability incubated for 7 days by Celltiter-Glo assay

CWR22R = assay: cells; format: functional, cell-based; details: Homo sapiens, 22Rv1, 168 h
Description: Antiproliferative activity against human 22Rv1 cells assessed as inhibition of cell viability incubated for 7 days by Celltiter-Glo assay

in vitro [5] = details: human, microsomes; remark: listed apart in the source
in vitro [6] = details: human, microsomes; remark: listed apart in the source
Androgen receptor [7] = biological target: Androgen receptor (Homo sapiens, UniProt P10275, W742L); format: cell-based, HEK293
Androgen receptor [8] = biological target: Androgen receptor (Homo sapiens, UniProt P10275, F877L); format: cell-based, HEK293

| SMILES | IC50 (Androgen receptor [1]) [µM] | IC50 (LNCaP) [µM] | further results |
| --- | --- | --- | --- |
| Cc1ccc(C(=O)NC2CC3(CCN(c4ccc(C#N)c(C(F)(F)F)c4)C3)C2)cn1 (centres undefined) | 0.0332 | 2.57 |  |
| C[C@](O)(CN1CCN(c2ccc(-c3ccc(C#N)c(F)c3)cc2)CC1)C(=O)Nc1ccc(C#N)c(C(F)(F)F)c1 |  |  | CLH [2]: 282 µL/min; remaining at 1 h, 1 µM (in vitro [3]): 12.2%; remaining at 1 h, 1 µM (in vitro [4]): 0.74%; IC50 (cells): 3.29 µM; IC50 (CWR22R): 2.34 µM; half-life at 1 h, 1 µM (in vitro [5]): 0.0825 h; microsomal CLint at 1 h, 1 µM (in vitro [6]): 252 µL/min/mg |
| N#Cc1ccc(NC(=O)C2CC3(CCN(c4ccc(C#N)c(C(F)(F)F)c4)C3)C2)cc1 (centres undefined) |  | 4.37 |  |
| N#Cc1ccc(N2CCC3(CC(NC(=O)c4ccc(-c5ccc(OCCO)cc5)cc4)C3)C2)cc1C(F)(F)F (centres undefined) |  | 0.65 |  |
| COC(=O)c1ccc(C(=O)NC2CC3(CCN(c4ccc(C#N)c(C(F)(F)F)c4)C3)C2)cc1 (centres undefined) |  | 6.46 |  |
| N#Cc1ccc(-c2ccc(C(=O)NC3CC4(CCN(c5ccc(C#N)c(C(F)(F)F)c5)C4)C3)cc2)cc1F (centres undefined) |  | 0.19 | remaining at 1 h, 1 µM (in vitro [3]): 100%; remaining at 1 h, 1 µM (in vitro [4]): 76.8%; IC50 (cells): 1.19 µM; IC50 (Androgen receptor [7]): 0.116 µM; IC50 (CWR22R): > 50 µM; half-life at 1 h, 1 µM (in vitro [5]): 2.57 h; microsomal CLint at 1 h, 1 µM (in vitro [6]): 9 µL/min/mg; IC50 (Androgen receptor [8]): > 10 µM |
| N#Cc1ccc(N2CCC3(CC(NC(=O)c4ccc(C(=O)O)cc4)C3)C2)cc1C(F)(F)F (centres undefined) |  | > 50 |  |
| N#Cc1ccc(CN2CC3(CCN(c4ccc(C#N)c(C(F)(F)F)c4)C3)C2)cc1 | 0.313 |  |  |
| CC(O)c1cc(C(=O)NC2CC3(CCN(c4ccc(C#N)c(C(F)(F)F)c4)C3)C2)n[nH]1 (centres undefined) |  | > 100 |  |
| N#Cc1ccc(N2CCC3(CC(NC(=O)c4ccc([N+](=O)[O-])cc4)C3)C2)cc1C(F)(F)F (centres undefined) |  | 3.28 |  |
| CN1CCN(c2ccc(C(=O)NC3CC4(CCN(c5ccc(C#N)c(C(F)(F)F)c5)C4)C3)cc2)CC1 (centres undefined) | 0.0246 | 3.57 |  |
| N#Cc1ccc(N2CCC3(CC(NC(=O)c4ccc(CO)cc4)C3)C2)cc1C(F)(F)F (centres undefined) | 0.0378 | 1.99 |  |
| CC(O)c1cc(C(=O)N[C@@H](C)Cn2ccc(-c3ccc(C#N)c(Cl)c3)n2)n[nH]1 (some centres undefined) [DAROLUTAMIDE] |  |  | IC50 (cells): 31.2 µM |
| CNC(=O)c1ccc(C(=O)NC2CC3(CCN(c4ccc(C#N)c(C(F)(F)F)c4)C3)C2)cc1F (centres undefined) | 0.0263 | 2.26 |  |
| C[C@](O)(Cn1ccc2cc(F)ccc21)C(=O)Nc1ccc(C#N)c(C(F)(F)F)c1 |  |  | IC50 (cells): 10.9 µM; IC50 (CWR22R): 9.98 µM |
| COc1ccc(C(=O)NC2CC3(CCN(c4ccc(C#N)c(C(F)(F)F)c4)C3)C2)cc1 (centres undefined) | 0.0251 | 0.92 |  |
| N#Cc1ccc(N2CCC3(CC(NC(=O)c4ccccc4)C3)C2)cc1C(F)(F)F (centres undefined) | 0.0437 |  |  |
| Cc1ccc(C(=O)NC2CC3(CCN(c4ccc(C#N)c(C(F)(F)F)c4)C3)C2)cc1 (centres undefined) |  | 1.26 |  |
| N#Cc1ccc(N2CCC3(CC(NC(=O)c4ccc(F)cc4)C3)C2)cc1C(F)(F)F (centres undefined) |  | 2.23 |  |
| N#Cc1ccc(-c2ccc(C(=O)NC3CC4(CCN(c5ccc(C#N)c(C(F)(F)F)c5)C4)C3)cc2)cc1 (centres undefined) | 0.0298 | 0.08 | IC50 (cells): 1.14 µM; IC50 (Androgen receptor [7]): 0.16 µM; IC50 (CWR22R): > 50 µM |

Reference: ChEMBL document CHEMBL6114964, “Discovery of novel spirocyclic derivates as potent androgen receptor antagonists” (Bioorg Med Chem, 2025)
